Molecular target: T1, ctCel48S_CD (Acetivibrio thermocellus, UniProt C7ED31)
T1 construct: GH48 catalytic domain, dockerin removed by inserted stop codon; C-terminal Gly5 linker and His12 tag kept; purified from culture supernatant of C. thermocellum DSM1313 (secreted); monomer
Experiment: reducing sugars released, HPLC
Type: biochemical
Settings: 1% (wt/vol) substrate, 50 mM succinate pH 5.7, 10 mM CaCl2, 55 °C, 5 h

T1 sequence (C7ED31 entry or part of it): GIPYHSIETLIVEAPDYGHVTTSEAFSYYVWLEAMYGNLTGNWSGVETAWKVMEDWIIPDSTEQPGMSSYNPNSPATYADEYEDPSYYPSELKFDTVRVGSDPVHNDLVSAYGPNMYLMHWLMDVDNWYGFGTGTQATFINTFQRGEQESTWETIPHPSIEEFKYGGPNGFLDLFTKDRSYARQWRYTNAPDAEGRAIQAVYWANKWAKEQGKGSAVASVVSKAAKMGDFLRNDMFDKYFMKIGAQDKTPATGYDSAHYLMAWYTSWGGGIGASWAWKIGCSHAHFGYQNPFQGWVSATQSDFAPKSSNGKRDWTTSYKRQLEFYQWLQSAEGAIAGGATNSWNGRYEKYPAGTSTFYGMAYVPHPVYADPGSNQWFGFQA

Row | Structure (SMILES) | reducing sugars released, HPLC
1 | OC[C@H]1O[C@@H](O[C@H]2[C@H](O)[C@@H](O)[C@H](O[C@H]3[C@H](O)[C@@H](O)[C@H](O[C@H]4[C@H](O)[C@@H](O)C(O)O[C@@H]4CO)O[C@@H]3CO)O[C@@H]2CO)[C@H](O)[C@@H](O)[C@@H]1O (some centres unmarked) [cellotetrose] | ctCel48S_CD could also hydrolyze cellopentose and cellotetrose
2 | OC[C@H]1O[C@@H](O[C@H]2[C@H](O)[C@@H](O)[C@H](O[C@H]3[C@H](O)[C@@H](O)[C@H](O[C@H]4[C@H](O)[C@@H](O)[C@H](O[C@H]5[C@H](O)[C@@H](O)C(O)O[C@@H]5CO)O[C@@H]4CO)O[C@@H]3CO)O[C@@H]2CO)[C@H](O)[C@@H](O)[C@@H]1O (some centres unmarked) [cellopentose] | ctCel48S_CD could also hydrolyze cellopentose and cellotetrose

— publication PMC5766998, “Determination of the native features of the exoglucanase Cel48S from Clostridium thermocellum” (Biotechnology for Biofuels, 2018)
